This note sets out measurements from BindingDB's records for doi:10.1021/jm040099a (Johnson & Johnson Pharmaceutical, 2005).

Test [1] concerns the target Vascular endothelial growth factor receptor 2 (Rattus norvegicus, UniProt O08775). The experiment in a line: Kinase Inhibition Assay. Here is the method:
(§1) The enzyme was assayed with a biotinylated peptide substrate and test compounds in the presence of 5 uM ATP/[gamma-33P]ATP in a streptavidin coated FlashPlate (Perkin-Elmer, Boston, MA). Inhibition of the enzymatic activity due to the compound was measured by observing a reduced amount of 33P-gamma-ATP incorporated into the immobilized peptide relative to untreated controls. Linear regression analysis of the percent of inhibition by the test compound was used to calculate IC50 values.

In test [2] the target is Cyclin-dependent kinase/G2/mitotic-specific cyclin- 1 (Homo sapiens, UniProt P06493). The experiment in a line: Kinase Inhibition Assay. As to conditions: pH 8; 30 °C. The protocol:
as §1

The structures appear in SMILES notation.

Chain of Vascular endothelial growth factor receptor 2 (O08775 whole entry): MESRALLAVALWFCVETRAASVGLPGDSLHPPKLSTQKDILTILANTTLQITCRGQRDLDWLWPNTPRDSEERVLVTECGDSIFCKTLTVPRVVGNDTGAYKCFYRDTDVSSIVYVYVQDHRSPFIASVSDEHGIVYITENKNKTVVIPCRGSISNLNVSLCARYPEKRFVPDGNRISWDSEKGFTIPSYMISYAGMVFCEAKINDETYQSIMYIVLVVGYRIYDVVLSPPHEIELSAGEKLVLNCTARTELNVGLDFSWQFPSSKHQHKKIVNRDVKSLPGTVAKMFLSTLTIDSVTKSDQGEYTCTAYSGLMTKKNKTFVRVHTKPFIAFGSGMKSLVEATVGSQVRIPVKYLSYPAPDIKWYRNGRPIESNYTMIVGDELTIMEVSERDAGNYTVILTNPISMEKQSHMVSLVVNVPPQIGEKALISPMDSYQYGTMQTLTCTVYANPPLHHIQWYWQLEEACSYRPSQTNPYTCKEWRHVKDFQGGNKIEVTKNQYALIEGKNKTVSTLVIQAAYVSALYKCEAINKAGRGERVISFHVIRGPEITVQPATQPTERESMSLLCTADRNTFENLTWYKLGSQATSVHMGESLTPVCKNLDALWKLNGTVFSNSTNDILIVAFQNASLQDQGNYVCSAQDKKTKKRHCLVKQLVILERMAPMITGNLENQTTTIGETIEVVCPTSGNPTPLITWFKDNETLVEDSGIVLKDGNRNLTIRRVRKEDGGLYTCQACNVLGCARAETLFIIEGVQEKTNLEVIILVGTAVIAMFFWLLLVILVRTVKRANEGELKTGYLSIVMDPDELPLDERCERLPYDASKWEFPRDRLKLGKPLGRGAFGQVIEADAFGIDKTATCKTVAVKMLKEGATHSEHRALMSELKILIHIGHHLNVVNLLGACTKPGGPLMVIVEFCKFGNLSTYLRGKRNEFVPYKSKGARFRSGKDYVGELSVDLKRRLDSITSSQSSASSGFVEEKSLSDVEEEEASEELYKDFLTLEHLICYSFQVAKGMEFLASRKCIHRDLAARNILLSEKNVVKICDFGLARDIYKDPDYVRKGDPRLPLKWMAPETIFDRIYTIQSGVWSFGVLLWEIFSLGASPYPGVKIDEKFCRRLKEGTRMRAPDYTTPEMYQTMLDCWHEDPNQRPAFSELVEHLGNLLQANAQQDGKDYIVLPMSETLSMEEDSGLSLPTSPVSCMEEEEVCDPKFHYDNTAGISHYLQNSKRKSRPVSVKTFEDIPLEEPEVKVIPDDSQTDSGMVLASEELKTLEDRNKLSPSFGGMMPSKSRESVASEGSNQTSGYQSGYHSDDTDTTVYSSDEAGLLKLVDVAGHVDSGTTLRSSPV
Chain of Cyclin-dependent kinase/G2/mitotic-specific cyclin- 1 (P06493 whole entry): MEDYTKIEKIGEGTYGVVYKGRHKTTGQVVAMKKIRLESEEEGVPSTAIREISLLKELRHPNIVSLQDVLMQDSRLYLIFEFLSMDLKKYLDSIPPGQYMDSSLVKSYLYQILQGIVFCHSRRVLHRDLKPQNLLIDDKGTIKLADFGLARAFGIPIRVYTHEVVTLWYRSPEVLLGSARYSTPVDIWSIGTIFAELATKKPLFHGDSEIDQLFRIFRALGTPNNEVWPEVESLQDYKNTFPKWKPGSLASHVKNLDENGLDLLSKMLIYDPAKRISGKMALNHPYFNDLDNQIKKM
Chain of Cyclin-dependent kinase/G2/mitotic-specific cyclin- 1 (P14635 whole entry, further chain): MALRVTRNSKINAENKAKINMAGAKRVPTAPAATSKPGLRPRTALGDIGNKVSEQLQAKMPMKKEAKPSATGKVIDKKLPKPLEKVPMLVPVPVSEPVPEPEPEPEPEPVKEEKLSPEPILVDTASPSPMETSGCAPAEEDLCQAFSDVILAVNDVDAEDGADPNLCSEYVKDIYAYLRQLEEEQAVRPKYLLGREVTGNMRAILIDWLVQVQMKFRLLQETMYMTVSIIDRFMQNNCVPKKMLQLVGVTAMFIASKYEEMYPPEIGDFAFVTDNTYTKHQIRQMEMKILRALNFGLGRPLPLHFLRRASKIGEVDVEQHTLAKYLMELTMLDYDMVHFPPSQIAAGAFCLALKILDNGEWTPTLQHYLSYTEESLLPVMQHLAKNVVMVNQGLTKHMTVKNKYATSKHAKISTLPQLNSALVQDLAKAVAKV

Take `OCCCNc1cncc(-c2ncc(Nc3cccc(Cl)c3)cn2)c1` [3-[(5-{5-[(3-chlorophenyl)amino]pyrimidin-2-yl}pyridin-3-yl)amino]propan-1-ol]: the IC50 in test [1] is > 10 µM.

Take `OCCCNc1cncc(-c2cc(Nc3cccc(Cl)c3)ncn2)c1` [3-[(5-{6-[(3-chlorophenyl)amino]pyrimidin-4-yl}pyridin-3-yl)amino]propan-1-ol]: the IC50 in test [1] is > 10 µM.

As to `OCCCNc1cccc(-c2cncc(Nc3cccc(Cl)c3)n2)n1` [3-[(6-{6-[(3-chlorophenyl)amino]pyrazin-2-yl}pyridin-2-yl)amino]propan-1-ol], in test [1], the IC50 was > 10 µM. Turning to `OCCCNc1cncc(-c2ncncc2Nc2cccc(Cl)c2)c1` [3-[[5-[5-[(3-Chlorophenyl)amino]-4-pyrimidinyl]-3-pyridinyl]amino]-1-propanol], the IC50 in test [2] and in test [1] was > 10 µM throughout. Turning to `OCCCNc1cncc(-c2cnc(Nc3cccc(Cl)c3)cn2)c1` [3-[[5-[5-[(3-chlorophenyl)amino]pyrazinyl]-3-pyridinyl]amino]-1-propanol], the IC50 in test [1] is > 10 µM. As for `OCCCNc1ccc(-c2cncc(Nc3cccc(Cl)c3)n2)nc1` [3-{[6-[6-((3-Chlorophenyl)amino)pyrazin-2-yl]pyridin-3-yl]amino}propan-1-ol], in test [1], the IC50 is > 10 µM.

Broadly, the IC50 is the midpoint of a concentration-inhibition curve.
